Target: PRMT5/MEP50 (Homo sapiens (Human), UniProt O14744)
Assay: PRMT5 Biochemical Assay (PRMT5/MEP50 enzyme assay on peptide substrate, 3H-SAM Flashplate)
Conditions: PRMT5/MEP50 4 nM, 3H-SAM 75 nM, peptide 40 nM
Excerpt: S-adenosylmethionine (SAM), S-adenosylhomocysteine (SAH), bicine, KCl, Tween20, dimethylsulfoxide (DMSO), bovine skin gelatin (BSG), and Tris(2-carboxyethyl)phosphine hydrochloride solution (TCEP) were purchased from Sigma-Aldrich at the highest level of purity possible. ^3H-SAM was purchase from American Radiolabeled Chemicals with a specific activity of 80 Ci/mmol. 384-well streptavidin Flashplates were purchased from PerkinElmer.
Peptide representative of human histone H4 residues 1-15 was synthesized with a C-terminal linker-affinity tag motif and a C-terminal amide cap by 21st Century Biochemicals. The peptide was high high-perfomance liquid chromatography (HPLC) purified to greater than 95% purity and confirmed by liquid chromatography mass spectrometry (LC-MS). The sequence was Ac-[…][K-Biot]-amide (SEQ ID NO.:3).
Full-length human PRMT5 (NM_006109.3) transcript variant 1 clone was amplified from a fetal brain cDNA library, incorporating flanking 5′ sequence encoding a FLAG tag ([…]) (SEQ ID NO.:4) fused directly to Ala 2 of PRMT5. Full-length human MEP50 (NM_024102) clone was amplified from a human testis cDNA library incorporating a 5′ sequence encoding a 6-histidine tag (MHHHHHH) (SEQ ID NO.:5) fused directly to Arg 2 of MEP50. The amplified genes were sublconed into pENTR/D/TEV (Life Technologies) and subsequently transferred by Gateway™ attL×attR recombination to pDEST8 baculvirus expression vector (Life Technologies).
Recombinant baculovirus and Baculovirus-Infected Insect Cells (BIIC) were generated according to Bac-to-Bac kit instructions (Life Technologies) and Wasilko, 2006, respectively. Protein over-expression was accomplished by infecting exponentially growing Spodoptera frugiperda (SF9) cell culture at 1.2×10^6 cell/ml with a 5000 fold dilution of BIIC stock. Infections were carried out at 27° C. for 72 hours, harvested by centrifugation, and stored at −80° C. for purification.
Flag-PRMT5/6His-MeP50 was eluted with 300 mM Imidazole in the same buffer. The purity of recovered protein was 87%. Reference: Wasilko, D. J. and S. E. Lee: “TIPS: titerless infected-cells preservation and scale-up” Bioprocess J., 5 (2006), pp. 29-32.
General Procedure for PRMT5/MEP50 Enzyme Assays on Peptide Substrates.
The assays were all performed in a buffer consisting of 20 mM Bicine (pH=7.6), 1 mM TCEP, 0.005% BSG, and 0.002% Tween20, prepared on the day of use. Compounds in 100% DMSO (1 ul) were spotted into a polypropylene 384-well V-bottom plates (Greiner) using a Platemate Plus outfitted with a 384-channel head (Thermo Scientific). DMSO (1 ul) was added to Columns 11, 12, 23, 24, rows A-H for the maximum signal control and 1 ul of SAH, a known product and inhibitor of PRMT5/MEP50, was added to columns 11, 12, 23, 24, rows I-P for the minimum signal control. A cocktail (40 ul) containing the PRMT5/MEP50 enzyme and the peptide was added by Multidrop Combi (Thermo-Fisher). The compounds were allowed to incubate with PRMT5/MEP50 for 30 min at 25 degrees Celsius, then a cocktail (10 ul) containing ^3H-SAM was added to initiate the reaction (final volume=51 ul). The final concentrations of the components were as follows: PRMT5/MEP50 was 4 nM, ^3H-SAM was 75 nM, peptide was 40 nM, SAH in the minimum signal control wells was 100 uM, and the DMSO concentration was 1%. The assays were stopped by the addition of non-radioactive SAM (10 ul) to a final concentration of 600 uM, which dilutes the ^3H-SAM to a level where its incorporation into the peptide substrate is no longer detectable. 50 ul of the reaction in the 384-well polypropylene plate was then transferred to a 384-well Flashplate and the biotinylated peptides were allowed to bind to the streptavidin surface for at least 1 hour before being washed three times with 0.1% Tween20 in a Biotek ELx405 plate washer. […]

Chain of PRMT5/MEP50 (O14744 other isoform, or with tags, fused parts or gaps): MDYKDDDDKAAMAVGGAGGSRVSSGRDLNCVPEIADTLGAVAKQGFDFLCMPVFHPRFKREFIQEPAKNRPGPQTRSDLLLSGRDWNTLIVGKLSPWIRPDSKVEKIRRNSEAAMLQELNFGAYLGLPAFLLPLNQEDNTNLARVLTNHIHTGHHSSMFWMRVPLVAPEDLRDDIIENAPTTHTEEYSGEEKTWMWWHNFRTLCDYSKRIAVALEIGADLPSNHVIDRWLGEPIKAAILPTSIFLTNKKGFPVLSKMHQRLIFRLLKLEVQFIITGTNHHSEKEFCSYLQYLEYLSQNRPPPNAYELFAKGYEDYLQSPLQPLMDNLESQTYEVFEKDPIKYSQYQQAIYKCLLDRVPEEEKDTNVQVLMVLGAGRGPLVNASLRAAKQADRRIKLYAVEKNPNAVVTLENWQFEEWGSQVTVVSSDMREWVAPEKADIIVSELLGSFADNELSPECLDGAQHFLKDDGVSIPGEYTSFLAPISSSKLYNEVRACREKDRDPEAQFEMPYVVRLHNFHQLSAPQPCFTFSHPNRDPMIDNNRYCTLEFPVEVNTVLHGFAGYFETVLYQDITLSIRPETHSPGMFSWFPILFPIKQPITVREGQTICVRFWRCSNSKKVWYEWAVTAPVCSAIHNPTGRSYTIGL
Chain of PRMT5/MEP50 (Q9BQA1 other isoform, or with tags, fused parts or gaps partner): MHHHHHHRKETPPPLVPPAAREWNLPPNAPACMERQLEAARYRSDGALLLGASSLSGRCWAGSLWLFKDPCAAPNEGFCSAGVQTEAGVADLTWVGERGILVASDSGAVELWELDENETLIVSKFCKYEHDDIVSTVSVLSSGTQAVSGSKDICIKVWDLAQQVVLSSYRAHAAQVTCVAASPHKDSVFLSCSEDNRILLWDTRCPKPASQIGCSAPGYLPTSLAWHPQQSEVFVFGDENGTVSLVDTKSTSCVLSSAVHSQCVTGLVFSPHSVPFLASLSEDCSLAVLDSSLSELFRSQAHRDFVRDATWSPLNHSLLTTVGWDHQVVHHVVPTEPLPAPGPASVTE

| Structure (SMILES) | IC50 [nM] |
| --- | --- |
| O=c1cc(Nc2ccccc2)ccn1C[C@H](O)CN1CCc2ccccc2C1 [Compound 19, (R)-1-(3-(3,4-dihydroisoquinolin-2(1H)-yl)-2-hydroxypropyl)-4-(phenylamino)pyridin-2(1H)-one] | 101 to 1000 |
| O=C1Cc2ccccc2N1CC(O)CN1CCc2ccccc2C1 (centres unmarked) [Compound 1, 1-(3-(3,4-dihydroisoquinolin-2(1H)-yl)-2-hydroxypropyl)indolin-2-one] | 101 to 1000 |
| O=C1CN(c2ccccc2Cl)CCN1CC(O)CN1CCc2ccccc2C1 (centres unmarked) [Compound 9] | 101 to 1000 |
| Cc1ccc(N2CCN(CC(O)CN3CCc4ccccc4C3)C(=O)C2)cc1 (centres unmarked) [Compound 15, 1-(3-(3,4-dihydroisoquinolin-2(1H)-yl)-2-hydroxypropyl)-4-(p-tolyl)piperazin-2-one] | 101 to 1000 |
| O=C1CN(c2cccc3cccnc23)CCN1CC(O)CN1CCc2ccccc2C1 (centres unmarked) [Compound 4, 1-(3-(3,4-dihydroisoquinolin-2(1H)-yl)-2-hydroxypropyl)-4-(quinolin-8-yl)piperazin-2-one] | < 100 |
| O=C1CN(c2cncc(N3CCOCC3)c2)CCN1CC(O)CN1CCc2ccccc2C1 (centres unmarked) [Compound 8, 1-(3-(3,4-dihydroisoquinolin-2(1H)-yl)-2-hydroxypropyl)-4-(5-morpholinopyridin-3-yl)piperazin-2-one] | < 100 |
| CN(C)c1ccccc1N1CCN(C[C@H](O)CN2CCc3ccccc3C2)C(=O)C1 [Compound 29] | 101 to 1000 |
| O=C1COc2ccccc2N1CC(O)CN1CCc2ccccc2C1 (centres unmarked) [Compound 31, 4-(3-(3,4-dihydroisoquinolin-2(1H)-yl)-2-hydroxypropyl)-2H-benzo[b][1,4]oxazin-3(4H)-one] | 101 to 1000 |
| O=C1CN(c2cccc(N3CCOCC3)c2)CCN1CC(O)CN1CCc2ccccc2C1 (centres unmarked) [Compound 12, 1-(3-(3,4-dihydroisoquinolin-2(1H)-yl)-2-hydroxypropyl)-4-(3-morpholinophenyl)piperazin-2-one] | < 100 |
| O=C1CN(c2ccc(Cl)cc2)CCN1CC(O)CN1CCc2ccccc2C1 (centres unmarked) [Compound 7, 4-(4-chlorophenyl)-1-(3-(3,4-dihydroisoquinolin-2(1H)-yl)-2-hydroxypropyl)piperazin-2-one] | < 100 |
| O=C1CN(c2cccc(F)c2)CCN1CC(O)CN1CCc2ccccc2C1 (centres unmarked) [Compound 6] | < 100 |

— US10150758B2, “PRMT5 inhibitors and uses thereof” (Epizyme, Inc., priority 2012, dated 2018)
